The record followed here is PMC6613200 (International Journal of Nanomedicine, 2019).

In one test the test system is HSA. Nature of the test: SPR selectivity, peptide vs interfering HSA. Format: binding, human. The settings on record: mixture containing 20 nM BSA and 20 nM HSA with hCG; 100 μM peptide.
Test [1] can be described thus: SPR binding of peptide aptamer to Au/Cys/carboxyl-GO chip. The conditions noted are these: carboxyl-GO with peptide aptamer, 1:1 Langmuir model.
The subject of the next test is BSA. Nature of the test: SPR selectivity, peptide vs interfering BSA. Format: binding, bovine. The conditions noted are these: mixture containing 20 nM BSA and 20 nM HSA with hCG; 100 μM peptide.

In the case of (N-)PPLRINRHILTR(-C) [peptide aptamer], the “interaction of peptide with interfering protein” value with HSA is “no significant interaction between the two proteins and the peptide”; in the test with BSA it was “no significant interaction between the two proteins and the peptide”. The KA in test [1] (flow rate 30 µL/min) amounted to 2.81e+07 M⁻¹. For the same substance, the “KD (kd/ka)” value in test [1] (flow rate 30 µL/min) was 0.36×10^–7 M. Further, the association rate ka in test [1] (flow rate 30 µL/min) came to 32.57 ×10[4] M^−1 s^−1; in test [1] (flow rate 60 µL/min), 13.75 ×10[4] M^−1 s^−1; in test [1] (flow rate 90 µL/min), 7.89 ×10[4] M^−1 s^−1.
